Experimental data taken from PMC4460250, “Systems Pharmacology Dissecting Holistic Medicine for Treatment of Complex Diseases: An Example Using Cardiocerebrovascular Diseases Treated by TCM” (Evidence-based Complementary and Alternative Medicine : eCAM, 2015).

Columns and labels:
[1] = in vivo
[2] = in vivo; cited from earlier work

Compound	Class(High: HIA value ≥0.7; Low: HIA value < 0.7) [1]	HIA(Human Intestinal Absorption) [2]
CN1C(=O)CCC1c1cccnc1 (stereo in doubt) [Cotinine(R)]	High (key: High: HIA value ≥0.7; Low: HIA value < 0.7)	0.97
CCC(C(N)=O)N1CCCC1=O (stereo in doubt) [Levetiracetam(R)]	High (key: High: HIA value ≥0.7; Low: HIA value < 0.7)	1
CN(Cc1cnc2nc(N)nc(N)c2n1)c1ccc(C(=O)NC(CCC(=O)O)C(=O)O)cc1 (stereo in doubt) [Methotrexate(R)]	High (key: High: HIA value ≥0.7; Low: HIA value < 0.7)	1
CN1CCCC1c1cccnc1 (stereo in doubt) [Nicotine(R)]	High (key: High: HIA value ≥0.7; Low: HIA value < 0.7)	1
CC(C)(C)NCC(O)COc1ccccc1C1CCCC1 (stereo in doubt) [Penbutolol(R)]	High (key: High: HIA value ≥0.7; Low: HIA value < 0.7)	1
CCCNC1CCc2nc(N)sc2C1 (stereo in doubt) [Pramipexole(R)]	High (key: High: HIA value ≥0.7; Low: HIA value < 0.7)	0.8
CCN1CCCC1CNC(=O)c1c(OC)ccc(Br)c1OC (stereo in doubt) [Remoxipride(R)]	High (key: High: HIA value ≥0.7; Low: HIA value < 0.7)	1
CCOc1cc(CC(=O)NC(CC(C)C)c2ccccc2N2CCCCC2)ccc1C(=O)O (stereo in doubt) [Repaglinide(R)]	High (key: High: HIA value ≥0.7; Low: HIA value < 0.7)	1
C#CCN(C)C(C)Cc1ccccc1 (stereo in doubt) [Selegiline(S)]	High (key: High: HIA value ≥0.7; Low: HIA value < 0.7)	1
CC(C)(C)NCC(O)COc1nsnc1N1CCOCC1 (stereo in doubt) [Timolol(R)]	High (key: High: HIA value ≥0.7; Low: HIA value < 0.7)	0.95
CC(=O)NCCCS(=O)(=O)O [Acamprosate]	Low (key: High: HIA value ≥0.7; Low: HIA value < 0.7)	0.11
C[C@H]1O[C@H](O[C@H]2[C@H](O)[C@@H](O)[C@@H](O[C@H]3[C@H](O)[C@@H](O)C(O)O[C@@H]3CO)O[C@@H]2CO)[C@H](O)[C@@H](O)[C@@H]1N[C@H]1C=C(CO)[C@@H](O)[C@H](O)[C@H]1O (stereo partly shown) [Acarbose]	Low (key: High: HIA value ≥0.7; Low: HIA value < 0.7)	0.02
CCCC(=O)Nc1ccc(OC[C@H](O)CNC(C)C)c(C(C)=O)c1 [Acebutolol(R)]	High (key: High: HIA value ≥0.7; Low: HIA value < 0.7)	0.85
CCCC(=O)Nc1ccc(OC[C@@H](O)CNC(C)C)c(C(C)=O)c1 [Acebutolol(S)]	High (key: High: HIA value ≥0.7; Low: HIA value < 0.7)	0.85
CC(C)(C)NC[C@H](O)c1ccc(O)c(CO)c1 [Albuterol(R)]	High (key: High: HIA value ≥0.7; Low: HIA value < 0.7)	0.83
CC(C)(C)NC[C@@H](O)c1ccc(O)c(CO)c1 [Albuterol(S)]	High (key: High: HIA value ≥0.7; Low: HIA value < 0.7)	0.83
Cc1nnc2n1-c1ccc(Cl)cc1C(c1ccccc1)=NC2 [Alprazolam]	High (key: High: HIA value ≥0.7; Low: HIA value < 0.7)	0.9
C=CCc1ccccc1OC[C@H](O)CNC(C)C [Alprenolol(R)]	High (key: High: HIA value ≥0.7; Low: HIA value < 0.7)	0.93
C=CCc1ccccc1OC[C@@H](O)CNC(C)C [Alprenolol(S)]	High (key: High: HIA value ≥0.7; Low: HIA value < 0.7)	0.93
N=C(N)NC(=O)c1nc(Cl)c(N)nc1N [Amiloride]	Low (key: High: HIA value ≥0.7; Low: HIA value < 0.7)	0.5
CC[C@]1(c2ccc(N)cc2)CCC(=O)NC1=O [Aminoglutethimide(R)]	High (key: High: HIA value ≥0.7; Low: HIA value < 0.7)	1
CC[C@@]1(c2ccc(N)cc2)CCC(=O)NC1=O [Aminoglutethimide(S)]	High (key: High: HIA value ≥0.7; Low: HIA value < 0.7)	1
CCC1(CCC(C)C)C(=O)NC(=O)NC1=O [Amobarbital]	High (key: High: HIA value ≥0.7; Low: HIA value < 0.7)	0.95
COc1ccccc1OCCNC[C@H](O)c1ccc(C)c(S(N)(=O)=O)c1 [Amosulalol(R)]	High (key: High: HIA value ≥0.7; Low: HIA value < 0.7)	1

Compound	Class(High: HIA value ≥0.7; Low: HIA value < 0.7) [1]	HIA(Human Intestinal Absorption) [2]
COc1ccccc1OCCNC[C@@H](O)c1ccc(C)c(S(N)(=O)=O)c1 [Amosulalol(S)]	High (key: High: HIA value ≥0.7; Low: HIA value < 0.7)	1
N#C[C@H](O[C@@H]1O[C@H](CO[C@@H]2O[C@H](CO)[C@@H](O)[C@H](O)[C@H]2O)[C@@H](O)[C@H](O)[C@H]1O)c1ccccc1 [Amygdalin(S)]	Low (key: High: HIA value ≥0.7; Low: HIA value < 0.7)	0.05
Cc1cc(=O)n(-c2ccccc2)n1C [Antipyrine]	High (key: High: HIA value ≥0.7; Low: HIA value < 0.7)	0.97
NC[C@H](CC(=O)O)c1ccc(Cl)cc1 [Baclofen(R)]	High (key: High: HIA value ≥0.7; Low: HIA value < 0.7)	0.95
NC[C@@H](CC(=O)O)c1ccc(Cl)cc1 [Baclofen(S)]	High (key: High: HIA value ≥0.7; Low: HIA value < 0.7)	0.95
N[C@H](CO)C(=O)NNCc1ccc(O)c(O)c1O [Benserazide(R)]	High (key: High: HIA value ≥0.7; Low: HIA value < 0.7)	0.7
N[C@@H](CO)C(=O)NNCc1ccc(O)c(O)c1O [Benserazide(S)]	High (key: High: HIA value ≥0.7; Low: HIA value < 0.7)	0.7
CCN(CC)CCCOC(=O)C1(c2ccccc2)CC2CCC1C2 (stereo not shown) [Bornaprine]	High (key: High: HIA value ≥0.7; Low: HIA value < 0.7)	1
O=C1CN=C(c2ccccn2)c2cc(Br)ccc2N1 [Bromazepam]	High (key: High: HIA value ≥0.7; Low: HIA value < 0.7)	0.84
C[C@@H](NC(C)(C)C)C(=O)c1cccc(Cl)c1 [Bupropion(R)]	High (key: High: HIA value ≥0.7; Low: HIA value < 0.7)	0.87
C[C@H](NC(C)(C)C)C(=O)c1cccc(Cl)c1 [Bupropion(S)]	High (key: High: HIA value ≥0.7; Low: HIA value < 0.7)	0.87
CN(C)C(=O)O[C@H]1N=C(c2ccccc2)c2cc(Cl)ccc2N(C)C1=O [Camazepam(R)]	High (key: High: HIA value ≥0.7; Low: HIA value < 0.7)	1
CN(C)C(=O)O[C@@H]1N=C(c2ccccc2)c2cc(Cl)ccc2N(C)C1=O [Camazepam(S)]	High (key: High: HIA value ≥0.7; Low: HIA value < 0.7)	1
CC1(C)S[C@@H]2[C@H](NC(=O)C(C(=O)Oc3ccccc3)c3ccccc3)C(=O)N2[C@H]1C(=O)O (stereo partly drawn) [Carfecillin(R)]	High (key: High: HIA value ≥0.7; Low: HIA value < 0.7)	0.99
CC(C)(C)NC[C@@H](O)COc1cccc2c1CCC(=O)N2 [Carteolol(R)]	High (key: High: HIA value ≥0.7; Low: HIA value < 0.7)	0.95
CC(C)(C)NC[C@H](O)COc1cccc2c1CCC(=O)N2 [Carteolol(S)]	High (key: High: HIA value ≥0.7; Low: HIA value < 0.7)	0.95
COc1ccccc1OCCNC[C@@H](O)COc1cccc2[nH]c3ccccc3c12 [Carvedilol(R)]	High (key: High: HIA value ≥0.7; Low: HIA value < 0.7)	0.8
COc1ccccc1OCCNC[C@H](O)COc1cccc2[nH]c3ccccc3c12 [Carvedilol(S)]	High (key: High: HIA value ≥0.7; Low: HIA value < 0.7)	0.8
CO/N=C(\C(=O)N[C@@H]1C(=O)N2C(C(=O)OC(C)OC(C)=O)=C(COC(N)=O)CS[C@H]12)c1ccco1 (stereo partly drawn) [Cefuroximeaxetil(R)]	Low (key: High: HIA value ≥0.7; Low: HIA value < 0.7)	0.36
OC(O)C(Cl)(Cl)Cl [Chloral_hydrate]	High (key: High: HIA value ≥0.7; Low: HIA value < 0.7)	1
O=C(O)CCCc1ccc(N(CCCl)CCCl)cc1 [Chlorambucil]	High (key: High: HIA value ≥0.7; Low: HIA value < 0.7)	1
OC[C@@H](O)COc1ccc(Cl)cc1 [Chlorphenesin(R)]	High (key: High: HIA value ≥0.7; Low: HIA value < 0.7)	1
OC[C@H](O)COc1ccc(Cl)cc1 [Chlorphenesin(S)]	High (key: High: HIA value ≥0.7; Low: HIA value < 0.7)	1
